According to paper PMC8151276, “An Integrated Approach toward NanoBRET Tracers for Analysis of GPCR Ligand Engagement” (Molecules, 2021):

Tests used:
Type in all cases: binding
P2RY11 = target: T1, P2RY11 (Homo sapiens, UniProt Q96G91); experiment: NanoBRET screen HiBiT-P2RY11 in HEK293
T1 construct: purchased Promega (in-house HiBiT-GPCR construct library, NanoBRET)
T1 sequence (Q96G91 1-374): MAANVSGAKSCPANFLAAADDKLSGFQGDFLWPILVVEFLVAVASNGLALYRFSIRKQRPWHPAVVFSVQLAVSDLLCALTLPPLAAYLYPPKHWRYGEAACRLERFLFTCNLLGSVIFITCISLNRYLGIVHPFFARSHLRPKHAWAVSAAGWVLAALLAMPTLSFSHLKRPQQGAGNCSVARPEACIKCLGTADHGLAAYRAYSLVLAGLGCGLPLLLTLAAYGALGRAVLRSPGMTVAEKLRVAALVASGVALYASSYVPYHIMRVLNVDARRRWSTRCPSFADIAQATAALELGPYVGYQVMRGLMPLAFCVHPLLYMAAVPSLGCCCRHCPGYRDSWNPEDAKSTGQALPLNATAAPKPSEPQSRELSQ
Procedure: (§1) Each tracer candidate was screened across the entire library of HiBiT-GPCR constructs using NanoBRET as the detection modality. As depicted in Figure 4A, the specificity of interactions was evaluated through decrease in BRET due to competitive displacement of a bound tracer by excess parental compound. Each tracer was analyzed for binding to each HiBiT-GPCR fusion in the absence and in the presence of competing parental compound. Briefly, HEK293 cells were transfected with HiBiT-GPCR constructs diluted into promoterless DNA to reduce expression and maximize translocation to the cell surface. Each tracer candidate was then screened at concentrations of 1 μM and 0.1 μM across cells expressing these fusions. Cells were treated for 1.5 h with tracer either alone or in the presence of 20 μM competing parental compound (i.e., control). BRET was measured upon addition of purified LgBiT and subsequent complementation with HiBiT genetically fused to a GPCR. The specificity of interactions was assessed through a decrease in BRET signal due to competitive displacement of the bound tracer. To further gauge the robustness of these interactions, the fold response over the control (i.e., BRETtracer/BRETcontrol) was calculated. We chose a 1.5-fold response, which translates to ≥7-fold signal over noise as the minimal threshold required to score an interaction as positive. […]. Below we highlight the screening results obtained for our exemplary fluorescent tracers based on Clozapine, Amitriptyline and AZD1283.
(§2) HiBiT-GPCR DNA constructs were diluted in 10 mM Tris pH 8 to a final concentration of 0.01 μg/μL, arrayed in 96-well plates and stored at −20 °C. For transfection, HEK293 cells were suspended in Opti-MEM (without phenol red) supplemented with 2% fetal bovine serum (Seradigm) and 100 units/mL penicillin–streptomycin (Gibco) at a final concentration of 220,000 cells/mL and dispensed into white 96-well plates at 90 μL/well. Subsequent transfections and screens were carried using an Agilent Bravo Automated Liquid Handling Platform. First, the 96-well HiBiT DNA arrays were diluted 25-fold in Opti-MEM (without serum or phenol red) to a final concentration of 0.0004 μg/μL and 20 μL of the diluted DNAs were transferred into new 96-well plates. Next, promoterless carrier DNA (1 μg/μL) was diluted 25-fold (0.04 μg/μL) and then dispensed into the diluted arrays at 20 μL/well. Following brief mixing, Viafect transfection reagent (Promega) diluted 16-fold into Opti-MEM was dispensed into the plates at 40 μL/well. After mixing by pipetting, plates were incubated for 10 min on the pipetting station deck. The DNA-transfection reagent complexes were then added to plates containing cells. To facilitate the screen, 10 μL of DNA-transfection reagent complexes were added in duplicates to the top 4 and bottom 4 rows, resulting in two identical 48-well arrays per plate. Plates with transfected cells were incubated for 18–20 h at 37 °C/5% CO2. A screen of each tracer across the entire library using two different concentrations requires duplicate plates of transfected cells. Depending on the number of tracers being screened, transfections can be scaled up using the same ratios. The next day, for each tracer, four 20× screening solutions in tracer dilution buffer (Promega) were prepared: two duplicates at final concentration of 20 μM and two duplicates at a final concentration of 2 μM. A competing unmodified compound was added to one of each duplicate at a final concentration of 400 μM. The four resulting solutions were diluted 4-fold in Opti-MEM without serum or phenol red to generate 5× solutions (5 µM and 0.5 µM tracer +/− 100 μM competing compound). To screen the library, a BioTek MultiFlo FX liquid dispenser was used to dispense 22.5 µL of tracer solution to the top 4 rows and 22.5 µL tracer + competing compound solution to the 4 bottom rows. Plates were briefly mixed on an orbital shaker and incubated for 1.5 h at room temperature. […]

PTGDR = target: T2, PTGDR (Homo sapiens, UniProt Q13258); experiment: NanoBRET screen HiBiT-PTGDR in HEK293; conditions: PTGDR
T2 construct: purchased Promega (in-house HiBiT-GPCR construct library, NanoBRET)
T2 sequence (Q13258 1-359): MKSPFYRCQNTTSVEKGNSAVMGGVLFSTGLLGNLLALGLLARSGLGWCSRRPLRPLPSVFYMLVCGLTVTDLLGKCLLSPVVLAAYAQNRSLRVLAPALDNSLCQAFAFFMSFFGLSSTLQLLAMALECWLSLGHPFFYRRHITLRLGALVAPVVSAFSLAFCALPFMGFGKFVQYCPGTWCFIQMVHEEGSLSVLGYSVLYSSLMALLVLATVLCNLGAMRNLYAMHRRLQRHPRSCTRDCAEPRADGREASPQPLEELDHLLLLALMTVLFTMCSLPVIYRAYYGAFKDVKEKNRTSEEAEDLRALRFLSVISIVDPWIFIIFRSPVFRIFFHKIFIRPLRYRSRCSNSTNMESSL
Procedure: as §1, §2

SSTR5 = target: T3, SSTR5 (Homo sapiens, UniProt P35346); experiment: NanoBRET screen HiBiT-SSTR5 in HEK293
T3 construct: purchased Promega (in-house HiBiT-GPCR construct library, NanoBRET)
Procedure: as §1, §2

CCR3 = target: T4, CCR3 (Homo sapiens, UniProt P51677); experiment: NanoBRET screen HiBiT-CCR3 in HEK293
T4 construct: purchased Promega (in-house HiBiT-GPCR construct library, NanoBRET)
T4 sequence (P51677 1-355): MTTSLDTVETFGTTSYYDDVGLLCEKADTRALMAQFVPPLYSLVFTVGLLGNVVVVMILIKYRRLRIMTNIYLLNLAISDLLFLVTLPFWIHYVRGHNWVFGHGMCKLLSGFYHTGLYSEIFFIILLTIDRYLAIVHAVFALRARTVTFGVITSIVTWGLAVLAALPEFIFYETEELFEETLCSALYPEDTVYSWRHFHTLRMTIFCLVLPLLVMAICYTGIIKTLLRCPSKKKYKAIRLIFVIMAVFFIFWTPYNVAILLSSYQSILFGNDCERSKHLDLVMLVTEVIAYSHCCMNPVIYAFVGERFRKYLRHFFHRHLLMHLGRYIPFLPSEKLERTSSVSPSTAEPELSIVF
Procedure: as §1, §2

GRM2 = target: T5, GRM2 (Homo sapiens, UniProt Q14416); experiment: NanoBRET screen HiBiT-GRM2 in HEK293; conditions: GRM2
T5 construct: purchased Promega (in-house HiBiT-GPCR construct library, NanoBRET)
Procedure: as §1, §2

MC3R = target: T6, MC3R (Homo sapiens, UniProt P41968); experiment: NanoBRET screen HiBiT-MC3R in HEK293; conditions: MC3R
T6 construct: purchased Promega (in-house HiBiT-GPCR construct library, NanoBRET)
Procedure: as §1, §2

T6 sequence (P41968 whole entry): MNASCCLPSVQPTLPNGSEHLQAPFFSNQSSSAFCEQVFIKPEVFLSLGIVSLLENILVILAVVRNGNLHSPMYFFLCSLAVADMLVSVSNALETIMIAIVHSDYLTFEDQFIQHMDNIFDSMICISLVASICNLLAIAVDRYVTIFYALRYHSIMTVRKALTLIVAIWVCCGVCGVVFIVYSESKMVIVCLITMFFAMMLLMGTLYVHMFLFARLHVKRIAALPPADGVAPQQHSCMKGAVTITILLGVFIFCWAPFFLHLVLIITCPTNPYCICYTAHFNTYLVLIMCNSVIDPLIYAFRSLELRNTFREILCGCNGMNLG
T3 sequence (P35346 whole entry): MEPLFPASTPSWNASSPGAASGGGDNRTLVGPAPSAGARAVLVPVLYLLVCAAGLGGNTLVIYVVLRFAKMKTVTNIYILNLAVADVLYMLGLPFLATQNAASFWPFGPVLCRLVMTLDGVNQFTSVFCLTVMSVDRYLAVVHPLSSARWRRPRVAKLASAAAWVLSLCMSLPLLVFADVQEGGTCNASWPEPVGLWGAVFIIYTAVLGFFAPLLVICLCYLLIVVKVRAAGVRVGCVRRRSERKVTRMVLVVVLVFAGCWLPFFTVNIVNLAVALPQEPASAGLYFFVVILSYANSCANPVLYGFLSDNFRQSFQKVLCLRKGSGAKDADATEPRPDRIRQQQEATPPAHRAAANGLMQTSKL
T5 sequence (Q14416 19-872): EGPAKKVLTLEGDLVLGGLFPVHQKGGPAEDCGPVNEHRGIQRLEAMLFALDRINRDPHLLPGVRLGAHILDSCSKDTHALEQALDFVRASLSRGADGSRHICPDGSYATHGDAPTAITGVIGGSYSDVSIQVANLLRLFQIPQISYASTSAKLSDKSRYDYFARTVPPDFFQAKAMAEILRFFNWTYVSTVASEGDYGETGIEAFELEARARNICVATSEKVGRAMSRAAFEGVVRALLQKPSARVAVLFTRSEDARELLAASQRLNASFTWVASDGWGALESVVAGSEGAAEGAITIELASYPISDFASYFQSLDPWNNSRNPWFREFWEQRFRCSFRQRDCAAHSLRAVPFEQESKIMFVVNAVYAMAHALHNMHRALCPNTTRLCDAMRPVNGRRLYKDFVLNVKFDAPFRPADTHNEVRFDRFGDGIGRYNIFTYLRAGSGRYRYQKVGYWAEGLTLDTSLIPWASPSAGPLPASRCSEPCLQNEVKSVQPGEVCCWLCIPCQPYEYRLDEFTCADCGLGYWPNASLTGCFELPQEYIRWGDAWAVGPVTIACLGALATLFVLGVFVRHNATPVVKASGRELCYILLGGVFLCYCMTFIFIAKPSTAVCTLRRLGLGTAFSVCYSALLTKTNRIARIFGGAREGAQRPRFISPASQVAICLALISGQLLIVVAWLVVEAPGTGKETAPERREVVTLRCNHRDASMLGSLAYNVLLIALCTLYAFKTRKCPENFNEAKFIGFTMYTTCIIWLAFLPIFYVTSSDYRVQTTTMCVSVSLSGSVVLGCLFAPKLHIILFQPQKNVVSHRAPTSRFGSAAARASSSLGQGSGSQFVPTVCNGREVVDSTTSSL

Structure (SMILES)	NanoBRET Fold Response (P2RY11; P2RY11, tracer 0.1μM)	NanoBRET Fold Response (P2RY11; P2RY11, tracer 1μM)	NanoBRET Fold Response (PTGDR; tracer 0.1μM)	NanoBRET Fold Response (PTGDR; tracer 1μM)	NanoBRET Fold Response (SSTR5; SSTR5, tracer 0.1μM)	NanoBRET Fold Response (SSTR5; SSTR5, tracer 1μM)	NanoBRET Fold Response (CCR3; CCR3, tracer 0.1μM)	NanoBRET Fold Response (CCR3; CCR3, tracer 1μM)	NanoBRET Fold Response (GRM2; tracer 0.1μM)	NanoBRET Fold Response (GRM2; tracer 1μM)	NanoBRET Fold Response (MC3R; tracer 0.1μM)	NanoBRET Fold Response (MC3R; tracer 1μM)	NanoBRET Fold Response (P2RY11; tracer at 0.1μM)	NanoBRET Fold Response (P2RY11; tracer at 1μM)	NanoBRET Fold Response (SSTR5; tracer at 0.1μM)	NanoBRET Fold Response (SSTR5; tracer at 1μM)	NanoBRET Fold Response (CCR3; tracer at 0.1μM)	NanoBRET Fold Response (CCR3; tracer at 1μM)
CC(C)N(CC[C@H](c1ccccc1)c1cc(CCNC(=O)c2ccc(CNC(=O)CCc3ccc4n3[B-](F)(F)[N+]3=C(c5ccc[nH]5)C=CC3=C4)cc2)ccc1O)C(C)C [Tolterodine-BZ-NB590]	1.07	0.96	1.03	0.98	1.08	1.04	0.98	0.72	1.00	0.15	1.03	1.01						
O=C(CCOCCOCCOCCOCCNC(=O)CCc1ccc2n1[B-](F)(F)[N+]1=C(c3ccc[nH]3)C=CC1=C2)NCCCN1CCN(C2=Nc3ccccc3Oc3ccc(Cl)cc32)CC1 [Loxapine-a-2-NB590]	1.02	0.94	0.93	0.98	1.10	1.15	1.02	1.02	1.00	1.25	1.00	1.00						
CN(C)CCC=C1c2ccccc2CCc2ccc(C(=O)NCCNC(=O)CCOCCOCCOCCOCCNC(=O)CCc3ccc4n3[B-](F)(F)[N+]3=C(c5ccc[nH]5)C=CC3=C4)cc21 [Amitriptyline-a-2-NB590]													1.13	1.07	1.00	1.05	1.02	0.95
CN(CCC=C1c2ccccc2CCc2ccccc21)C(=O)CCOCCOCCOCCOCCNC(=O)CCc1ccc2n1[B-](F)(F)[N+]1=C(c3ccc[nH]3)C=CC1=C2 [Amitriptyline-e-2-NB590]														1.13				0.86
